Assay results taken from ChEMBL document CHEMBL5380870, “Halo Library, a Tool for Rapid Identification of Ligand Binding Sites on Proteins Using Crystallographic Fragment Screening” (J Med Chem, 2023).

Tests used:
[1] = molecular target: Human immunodeficiency virus type 1 reverse transcriptase (Human immunodeficiency virus 1, UniProt Q72547); assay: Inhibition of HIV-1 reverse transcriptase RT52A mutant using ABTS as substrate preincubated with compound for 1 hr followed by template-primer addition for 1 hr and measured 20 mins after substrate addition by absorbance based Roche colorimetric assay
[2] = system: Human immunodeficiency virus type 1 reverse transcriptase (Human immunodeficiency virus 1), Q72547 [UNDEFINED MUTATION]; conditions: time 140.0 min, at 5 mM

Compound	IC50 [1]	inhibition [2]
O=C(O)c1cc2cc(F)ccc2[nH]1 [5-FLUOROINDOLE-2-CARBOXYLIC ACID]	2900 µM	99%
Oc1ccc(C(F)(F)F)cn1	–	35%
Ic1cn[nH]c1	–	24%
NCc1cccc(Br)c1	–	96%
NCCc1c(F)cccc1Cl	2100 µM	99%
N#Cc1c(N)cccc1F	–	75%
O=c1[nH]cnc2cccc(F)c12	–	55%
Nc1ccncc1Br	2100 µM	99%
Brc1cn[nH]c1	–	22%
Cc1c(CO)cnn1-c1ccc(F)cc1	–	55%
CNc1ccc(C(F)(F)F)cc1N	–	35%
